Assays:
CYP450 1A2 = target: T1, CYP450 1A2 (Homo sapiens, UniProt P05177); test: CYP450 panel, 1A2; assay type: in vitro ADME; conditions: 10 μM; substrate phenacetin
T1 sequence (P05177 1-516): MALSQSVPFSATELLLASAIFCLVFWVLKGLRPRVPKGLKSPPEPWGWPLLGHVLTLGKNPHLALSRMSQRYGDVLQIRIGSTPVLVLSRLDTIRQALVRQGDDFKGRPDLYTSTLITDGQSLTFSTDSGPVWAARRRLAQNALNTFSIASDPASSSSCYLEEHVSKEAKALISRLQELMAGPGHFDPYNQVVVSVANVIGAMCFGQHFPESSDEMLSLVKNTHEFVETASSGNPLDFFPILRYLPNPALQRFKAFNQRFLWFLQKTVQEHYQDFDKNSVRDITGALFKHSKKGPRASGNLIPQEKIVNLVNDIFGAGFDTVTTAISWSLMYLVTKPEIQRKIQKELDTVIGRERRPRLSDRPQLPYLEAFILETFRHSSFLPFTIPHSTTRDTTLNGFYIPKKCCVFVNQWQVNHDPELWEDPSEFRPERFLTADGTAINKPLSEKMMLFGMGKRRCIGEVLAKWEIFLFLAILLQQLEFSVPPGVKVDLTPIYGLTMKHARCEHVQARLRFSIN

CYP450 2C9 = CYP450 2C9 (Homo sapiens, UniProt P11712); test: CYP450 panel, 2C9; conditions: 10 μM; substrate Diclofenac
CYP450 3A4 = CYP450 3A4 (Homo sapiens, UniProt P08684); test: CYP450 panel, 3A4; conditions: 10 μM; for 3A4*: substrate midazolam; for 3A4^: substrate testosterone
[1] = Microsome stability, human; assay type: in vitro ADME; conditions: microsomes, 2 μM
CYP450 2C19 = CYP450 2C19 (Homo sapiens, UniProt P33261); test: CYP450 panel, 2C19; conditions: 10 μM; substrate mephenytoin
Plasma stability, human = assay type: in vitro ADME; conditions: 2 μM
CYP450 2D6 = CYP450 2D6 (Homo sapiens, UniProt P10635); test: CYP450 panel, 2D6; conditions: 10 μM; substrate dextromethophan
[2] = Plasma stability, CD-1 mouse; assay type: in vitro ADME; conditions: 2 μM
CYP450 2C8 = target: T2, CYP450 2C8 (Homo sapiens, UniProt P10632); test: CYP450 panel, 2C8; conditions: 10 μM; substrate amodiaquine
T2 sequence (P10632 1-490): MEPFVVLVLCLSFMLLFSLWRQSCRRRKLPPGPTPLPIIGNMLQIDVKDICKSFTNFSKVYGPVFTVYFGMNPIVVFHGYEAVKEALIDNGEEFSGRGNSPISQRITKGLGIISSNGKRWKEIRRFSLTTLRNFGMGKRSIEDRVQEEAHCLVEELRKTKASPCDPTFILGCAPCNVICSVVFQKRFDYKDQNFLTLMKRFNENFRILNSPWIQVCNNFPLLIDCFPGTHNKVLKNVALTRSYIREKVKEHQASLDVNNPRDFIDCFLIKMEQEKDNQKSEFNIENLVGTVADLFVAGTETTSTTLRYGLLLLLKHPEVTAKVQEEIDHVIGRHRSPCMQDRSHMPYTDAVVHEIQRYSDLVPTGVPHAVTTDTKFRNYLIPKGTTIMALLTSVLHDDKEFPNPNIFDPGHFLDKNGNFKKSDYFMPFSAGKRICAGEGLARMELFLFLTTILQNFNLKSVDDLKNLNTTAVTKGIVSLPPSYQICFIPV

[3] = Absorption & efflux: Caco-2 permeability; conditions: human
A549 pERK = test: A549-pERK, 2 h (quantitative Western, Jess); assay type: cell-based; conditions: Homo sapiens, A549, 2 h, 10 nM, phospho:total ratio normalized to DMSO control
Description: A549 or […] cells were treated in duplicate for two hours with compounds at varying concentrations. After two hours, the cells were lysed, snap frozen, and stored at −80° C. After storage, the lysate was quantified with the Bradford assay. Before the lysates were prepared to run on the Jess, the lysates were diluted to 1 mg/mL for pERK analysis and 1.5 mg/mL pMEK analysis using quantitative Western blotting. ERK and MEK phosphorylation levels were estimated by taking the ratio of phospho-protein to total protein and normalizing to the DMSO control. The results of this study are described in Tables 14-16.

[4] = Plasma stability, beagle dog; assay type: in vitro ADME; conditions: 2 μM
hERG Channel = hERG Channel (Homo sapiens, UniProt Q12809); test: cell-based
[5] = Microsome stability, beagle dog; assay type: in vitro ADME; conditions: microsomes, 2 μM
CYP450 2B6 = target: T3, CYP450 2B6 (Homo sapiens, UniProt P20813); test: CYP450 panel, 2B6; conditions: 10 μM; substrate bupropion
T3 sequence (P20813 1-491): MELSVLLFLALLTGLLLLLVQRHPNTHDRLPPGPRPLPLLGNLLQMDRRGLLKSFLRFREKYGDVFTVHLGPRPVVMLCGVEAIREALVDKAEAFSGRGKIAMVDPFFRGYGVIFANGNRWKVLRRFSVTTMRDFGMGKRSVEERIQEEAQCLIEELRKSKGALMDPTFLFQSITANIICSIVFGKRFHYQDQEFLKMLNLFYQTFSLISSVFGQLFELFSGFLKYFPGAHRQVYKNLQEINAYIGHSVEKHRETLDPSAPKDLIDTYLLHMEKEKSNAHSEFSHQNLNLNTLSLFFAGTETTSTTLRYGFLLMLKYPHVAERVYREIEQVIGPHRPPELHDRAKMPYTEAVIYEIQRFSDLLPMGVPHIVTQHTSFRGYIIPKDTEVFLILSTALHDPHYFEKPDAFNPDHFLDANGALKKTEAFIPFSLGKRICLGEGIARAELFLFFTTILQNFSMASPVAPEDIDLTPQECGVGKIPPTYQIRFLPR

[6] = Microsome stability, CD-1 mouse; conditions: microsomes, 2 μM
[7] = Caco-2, A-B Permeability Ranking
[8] = Caco-2, Mean Papp A-B (10^−6 cm/s)

CYP450 2C9, sequence (P11712 whole entry): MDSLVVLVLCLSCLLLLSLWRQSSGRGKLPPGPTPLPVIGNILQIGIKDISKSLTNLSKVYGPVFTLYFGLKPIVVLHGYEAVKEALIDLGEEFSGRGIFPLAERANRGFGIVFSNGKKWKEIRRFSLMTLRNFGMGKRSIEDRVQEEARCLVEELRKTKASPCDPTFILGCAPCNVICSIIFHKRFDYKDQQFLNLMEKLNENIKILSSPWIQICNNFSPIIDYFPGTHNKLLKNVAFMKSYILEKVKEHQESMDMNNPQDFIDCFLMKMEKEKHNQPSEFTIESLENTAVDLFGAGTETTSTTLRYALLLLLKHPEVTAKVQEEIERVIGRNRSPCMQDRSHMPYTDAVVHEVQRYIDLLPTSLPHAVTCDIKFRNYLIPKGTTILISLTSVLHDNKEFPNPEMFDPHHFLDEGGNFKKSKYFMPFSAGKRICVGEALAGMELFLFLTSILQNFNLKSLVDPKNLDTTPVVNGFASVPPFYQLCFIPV
CYP450 3A4, sequence (P08684 whole entry): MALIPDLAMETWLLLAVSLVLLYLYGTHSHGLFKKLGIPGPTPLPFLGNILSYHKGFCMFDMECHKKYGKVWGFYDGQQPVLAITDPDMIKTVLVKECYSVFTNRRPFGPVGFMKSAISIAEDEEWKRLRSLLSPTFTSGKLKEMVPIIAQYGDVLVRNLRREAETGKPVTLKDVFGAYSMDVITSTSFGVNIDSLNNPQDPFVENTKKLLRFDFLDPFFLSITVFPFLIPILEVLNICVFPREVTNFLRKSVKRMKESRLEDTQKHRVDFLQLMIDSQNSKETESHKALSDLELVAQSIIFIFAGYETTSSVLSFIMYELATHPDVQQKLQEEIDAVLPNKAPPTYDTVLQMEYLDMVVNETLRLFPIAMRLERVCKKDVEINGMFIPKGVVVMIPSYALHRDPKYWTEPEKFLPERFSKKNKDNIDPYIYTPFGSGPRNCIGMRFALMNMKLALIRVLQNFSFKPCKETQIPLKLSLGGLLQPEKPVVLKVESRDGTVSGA
hERG Channel, sequence (Q12809 whole entry): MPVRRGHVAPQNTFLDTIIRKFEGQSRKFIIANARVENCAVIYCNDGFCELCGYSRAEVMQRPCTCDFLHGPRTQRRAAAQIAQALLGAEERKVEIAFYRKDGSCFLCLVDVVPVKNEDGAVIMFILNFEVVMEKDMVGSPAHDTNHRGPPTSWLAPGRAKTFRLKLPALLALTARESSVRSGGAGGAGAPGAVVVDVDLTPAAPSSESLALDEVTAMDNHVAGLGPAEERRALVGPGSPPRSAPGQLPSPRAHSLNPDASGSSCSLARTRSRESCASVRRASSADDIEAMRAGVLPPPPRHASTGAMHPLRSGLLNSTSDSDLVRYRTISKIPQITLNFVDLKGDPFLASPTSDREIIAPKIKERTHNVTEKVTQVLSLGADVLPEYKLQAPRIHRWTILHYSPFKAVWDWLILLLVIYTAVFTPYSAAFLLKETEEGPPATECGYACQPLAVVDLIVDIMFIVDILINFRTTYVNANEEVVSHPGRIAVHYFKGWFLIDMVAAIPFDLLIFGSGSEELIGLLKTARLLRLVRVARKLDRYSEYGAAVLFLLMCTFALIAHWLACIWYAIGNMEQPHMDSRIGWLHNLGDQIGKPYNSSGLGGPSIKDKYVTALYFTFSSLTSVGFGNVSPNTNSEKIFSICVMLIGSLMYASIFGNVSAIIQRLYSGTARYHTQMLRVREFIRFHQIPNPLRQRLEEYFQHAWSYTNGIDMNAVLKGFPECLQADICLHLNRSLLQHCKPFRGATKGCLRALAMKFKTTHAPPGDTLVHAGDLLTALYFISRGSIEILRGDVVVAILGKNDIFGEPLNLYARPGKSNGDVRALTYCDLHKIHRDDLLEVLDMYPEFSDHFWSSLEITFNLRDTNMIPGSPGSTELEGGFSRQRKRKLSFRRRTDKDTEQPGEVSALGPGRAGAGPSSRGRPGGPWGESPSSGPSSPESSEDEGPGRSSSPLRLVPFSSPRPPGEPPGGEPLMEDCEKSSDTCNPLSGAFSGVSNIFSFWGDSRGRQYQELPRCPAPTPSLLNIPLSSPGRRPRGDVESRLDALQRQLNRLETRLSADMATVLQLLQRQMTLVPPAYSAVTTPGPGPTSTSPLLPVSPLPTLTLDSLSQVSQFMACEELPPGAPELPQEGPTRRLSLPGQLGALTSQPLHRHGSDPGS
CYP450 2C19, sequence (P33261 whole entry): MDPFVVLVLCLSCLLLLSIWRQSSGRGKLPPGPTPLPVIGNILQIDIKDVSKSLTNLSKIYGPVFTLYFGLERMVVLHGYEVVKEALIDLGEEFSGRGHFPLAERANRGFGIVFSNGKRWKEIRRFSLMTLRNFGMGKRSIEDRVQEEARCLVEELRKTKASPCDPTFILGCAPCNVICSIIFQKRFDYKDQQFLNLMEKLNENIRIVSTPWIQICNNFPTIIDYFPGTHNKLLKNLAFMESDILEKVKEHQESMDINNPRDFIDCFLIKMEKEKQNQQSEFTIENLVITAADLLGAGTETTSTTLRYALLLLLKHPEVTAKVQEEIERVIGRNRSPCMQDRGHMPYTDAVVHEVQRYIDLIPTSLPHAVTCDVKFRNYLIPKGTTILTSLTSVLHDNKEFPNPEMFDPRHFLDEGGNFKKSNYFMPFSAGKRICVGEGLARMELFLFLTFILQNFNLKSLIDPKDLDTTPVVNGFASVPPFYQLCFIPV
CYP450 2D6, sequence (P10635 whole entry): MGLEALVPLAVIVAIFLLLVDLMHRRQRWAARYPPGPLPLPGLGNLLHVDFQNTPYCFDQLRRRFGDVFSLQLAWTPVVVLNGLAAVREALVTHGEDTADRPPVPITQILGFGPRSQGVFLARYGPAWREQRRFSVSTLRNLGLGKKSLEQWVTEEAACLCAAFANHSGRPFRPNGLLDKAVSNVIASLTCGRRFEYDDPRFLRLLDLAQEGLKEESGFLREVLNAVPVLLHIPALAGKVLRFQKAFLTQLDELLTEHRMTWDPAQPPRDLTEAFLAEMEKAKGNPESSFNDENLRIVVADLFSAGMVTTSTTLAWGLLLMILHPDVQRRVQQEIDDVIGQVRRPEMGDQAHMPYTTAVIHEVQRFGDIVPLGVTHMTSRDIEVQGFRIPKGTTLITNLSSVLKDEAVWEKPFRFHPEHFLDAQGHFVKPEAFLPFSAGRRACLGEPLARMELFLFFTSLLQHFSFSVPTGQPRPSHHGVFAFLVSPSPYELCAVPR

| SMILES | 1A2* (CYP450 1A2) | 2C9* (CYP450 2C9) | 3A4* (CYP450 3A4) | 3A4^ (CYP450 3A4) | Human (% Reamining @1 hour) [1] [%] | 2C19* (CYP450 2C19) | Human (% Reamining @2 hour) (Plasma stability, human) [%] | 2D6* (CYP450 2D6) | CD-1 Mouse (% Reamining @2 hour) [2] [%] | 2C8* (CYP450 2C8) | Papp B→A at 2 h, 10 μM [3] [×10⁻⁶ cm/s] | efflux ratio at 2 h, 10 μM [3] | Papp A→B at 2 h, 10 μM [3, 7] [×10⁻⁶ cm/s] | Papp A→B at 2 h, 10 μM [3, 8] [×10⁻⁶ cm/s] | activity at 0.01 µM (A549 pERK) [%] | Beagle Dog (% Reamining @2 hour) [4] [%] | IC50 (hERG Channel) [µM] | Beagle Dog (% Reamining @1 hour) [5] [%] | 2B6* (CYP450 2B6) | CD-1 Mouse (% Reamining @1 hour) [6] [%] |
| --- | --- | --- | --- | --- | --- | --- | --- | --- | --- | --- | --- | --- | --- | --- | --- | --- | --- | --- | --- | --- |
| CNS(=O)(=O)Nc1cccc(Cc2c(CN3CCN(C)CC3)c3ccc(OC(=O)N(C)C)cc3oc2=O)c1F [Compound 15] | 7.8 | 3.0 | 21.3 | 20.5 | 75.8 | 4.3 | 98.1 | 0.5 | 87.1 | −16.9 | 34.9 | 29.3 | > 1 | 1.19 | 73.8 | 89.1 | 6.5 | 46.0 | 16.3 | 77.6 |
| CNS(=O)(=O)Nc1cccc(Cc2c(CN3CCN(Cc4ccccc4)CC3)c3ccc(OC(=O)N(C)C)cc3oc2=O)c1F [Compound 16] | 6.9 | 42.4 | 75.1 | 92.1 | 1.4 | 88.4 | 99.0 | 55.0 | 92.7 | 45.5 | 5.61 | 0.743 | > 1 | 7.55 | 91.6 | 101.2 | 0.1 | 0.4 | 11.6 | 0.6 |
| O=c1c(O)c(-c2ccc(O)c(O)c2)oc2cc(O)cc(O)c12 [Quercetin] |  |  |  |  |  |  |  |  |  | 93.1 |  |  |  |  |  |  |  |  |  |  |
| Nc1ccc(S(=O)(=O)Nc2ccnn2-c2ccccc2)cc1 [Sulfaphenazole] |  | 101.2 |  |  |  |  |  |  |  |  |  |  |  |  |  |  |  |  |  |  |

— patent publication US20250270180A1, “MEK INHIBITORS AND THERAPEUTIC USES THEREOF” (Immuneering Corporation, priority 2020, published 2025)
